{
  "source": "patent US20120177698A1",
  "about": "“AGGREGATES WITH INCREASED DEFORMABILITY, COMPRISING AT LEAST THREE AMPHIPATS, FOR IMPROVED TRANSPORT THROUGH SEMI-PERMEABLE BARRIERS AND FOR THE NON-INVASIVE DRUG APPLICATION IN VIVO, ESPECIALLY THROUGH THE SKIN” (priority 2002, published 2012)",
  "assay": "Barrier transport resistance, simple experimental method (SEM), filtration through 0.2 micrometer filter",
  "type": "physicochemical",
  "conditions": "Examples 121-129; relative SDS concentration in SPC/Tween 80 bilayer; some uncertainty in the 2-6 mol % region",
  "text": "In first approximation one relies on simple experimental method (SEM) and takes barrier transport resistance (in arbitrary units) to be proportional to the pressure (in arbitrary units) needed to drive a suspension of relatively large vesicles through a 0.2 micrometer filter with good efficacy. […] Barrier penetrability, which in older publications is called permeability, is identified with inverse barrier resistance value. […] Drug Delivery Rev. 18:349-378 (1996).\nTransport (pore penetration) capability. […] The trend is enhanced by the presence of sodium dodecylsulphate in the mixed lipid aggregates. The later shifts the minimum amount of Tween needed to cross the semi-permeable barrier to increasingly lower relative concentration values.\nTransport ability ([…] capability and adaptability) of aggregate suspension. To characterise the resistance of semi-permeable barrier to suspension flux (=transbarrier flux), the same method as in examples 1-120 was used. The resistance was measured as a function of relative SDS concentration in bilayer, to determine minimum amount of this latter surfactant that is needed to maximise suspension flux across the barrier and minimises the barrier transport resistance value. […] This is consistent with the results of first test series (examples 1-120) except in that the measured resistance values are now somewhat higher. […]",
  "data": [
    {"smiles": "CCCCCCCCCCCCOS(=O)(=O)[O-].[Na+]", "note": "[SDS, Sodium dodecylsulphate]", "values": [
      {"measurement": "threshold limit: minimum amount of SDS needed to minimise barrier transport resistance", "result": "around 6 mol-%"}
    ]}
  ]
}
